Assay results taken from patent US20170368082A1, “FORMULATIONS OF BRINCIDOFOVIR” (priority 2016, published 2017).
Read-outs that look alike come from different tables or passages of the source.

Test: Phase 2 toxicokinetics of brincidofovir and cidofovir in plasma
Type: in vivo, Sprague-Dawley CD rats
Conditions: for Cmax/Dose / Tlast / AUClast/Dose / AUC(0-t) / Cmax / Tmax: brincidofovir in plasma; for concentration at 1 h / concentration at 2 h / concentration at 8 h / concentration at 24 h / concentration at 0 h / AUC(0-t) / Cmax / Tmax: female, Sprague-Dawley CD, rat, plasma; for concentration at 1 h / concentration at 2 h / concentration at 8 h / concentration at 24 h / concentration at 0 h: intravenous; for AUC(0-t) / Cmax / Tmax: iv; for Tmax: read-out: Tmax
Description: Plasma samples (108) were collected 2 hours following the initiation of dosing on Day 1 and Day 7 (Group 1), or at 1, 2, 8, and 24 hours following the initiation of dosing on Day 1, and prior to administration and at 2, 8, and 24 hours following the initiation of dosing on Day 7 (Groups 2 and 3), and analyzed to determine the concentrations of brincidofovir and the metabolite, cidofovir), by LC/MS/MS.
Approximately 0.4 mL of whole blood was obtained via the tail vein from each animal at each time point. Animals were not fasted prior to blood collection. Blood was collected into tubes containing K2EDTA anticoagulant and placed on wet ice in an upright position, per facility SOP prior to processing. Plasma was separated by centrifugation (10 minutes at approximately 2000 g, at approximately 2-8° C.). Approximately 0.10 mL of plasma was transferred into a single cryotube appropriately labeled with study number, animal number, time point, date of sampling and sample type. Remaining plasma was transferred into a second cryotube and retained as a backup sample. Plasma frozen at approximately −80±10° C. within approximately 2 hours after collection of each blood sample until analysis. Animals were euthanized (CO2 inhalation) after the final blood collection.
In general, TK parameters were estimated using mean plasma concentrations of brincidofovir and cidofovir derived from the composite blood sampling design using Phoenix WinNonLin (V 6.3).
A composite blood sampling design was used such that each rat was sampled twice per sampling day. Blood was collected via tail vein from unanesthetized animals into tubes containing anticoagulant and placed on wet ice in an upright position. Animals were not fasted prior to blood collection. Plasma was separated by centrifugation (for 10 minutes at approximately 2000 g, at approximately 2-8° C.), and transferred into individually labeled cryotubes. All cryotubes containing the collected plasma samples were appropriately labeled as to study number, animal number, time point, date of sampling and sample type. All plasma samples were obtained and frozen at approximately −80° C. (±10° C.) within approximately 2 hours after collection of each blood sample until analysis.
Rat plasma bioanalysis was conducted by Pyxant Laboratories. Plasma samples were analyzed for concentrations of brincidofovir and cidofovir using a method based upon protein precipitation extraction followed by LC-MS/MS analysis; calibration ranges for brincidofovir and cidofovir were 1.00-1500 ng/mL and 5.00-750 ng/mL, respectively, (Pyxant study number 3025) for a 50 μL aliquot of rat plasma. Sample analysis for ISR was not performed as part of this non-GLP study.
For the generation of Mean Profiles, all sample concentrations that were below the limit of quantitation (BLQ) were set to 0.
All pharmacokinetic parameter estimates were completed using a Non-Compartmental Model (Model 200-202 for IV infusion administration). The AUClast and AUCinf were calculated using the linear up log down trapezoidal rule.

[1] = 1 mg/kg 2-hour IV infusion, Male rats, Day 1
[2] = 1 mg/kg 2-hour IV infusion, Male rats, Day 7
[3] = 15 mg/kg 2-hour IV infusion, Female rats, Day 1
[4] = 15 mg/kg 2-hour IV infusion, Female rats, Day 7
[5] = 15 mg/kg 2-hour IV infusion, Male rats, Day 1
[6] = 15 mg/kg 2-hour IV infusion, Male rats, Day 7
[7] = 1 mg/kg, 1 mg/kg 2-hour IV infusion, Female rats, Day 1
[8] = 1 mg/kg, 1 mg/kg 2-hour IV infusion, Female rats, Day 7

For `CCCCCCCCCCCCCCCCOCCCOP(=O)(O)CO[C@H](CO)Cn1ccc(N)nc1=O` [Brincidofovir], the Cmax/Dose [1] was 235 (ng/mL)/(mg/kg), the Tlast [1] was 2 h and the Cmax/Dose [2] was 208 (ng/mL)/(mg/kg). For the same compound, the Tlast [2] was 2 h, the AUClast/Dose [3] was 491 (h*ng/mL)/(mg/kg) and the Cmax/Dose [3] was 231 (ng/mL)/(mg/kg). For the same compound, the Tlast [3] was 24 h, the AUClast/Dose [4] was 228 (h*ng/mL)/(mg/kg) and the Cmax/Dose [4] was 110 (ng/mL)/(mg/kg). For the same compound, the Tlast [4] was 24 h, the AUClast/Dose [5] was 585 (h*ng/mL)/(mg/kg) and the Cmax/Dose [5] was 291 (ng/mL)/(mg/kg). The Tlast [5] was 24 h, the AUClast/Dose [6] was 273 (h*ng/mL)/(mg/kg) and the Cmax/Dose [6] was 127 (ng/mL)/(mg/kg). It also gave a Tlast [6] of 24 h, a concentration at 1 h (1 mg/kg, brincidofovir 1 mg/kg, Female, Day 1, 1 h, read-out: brincidofovir Imputed Mean Concentration (IMC)) of 137 ng/mL and a concentration at 1 h (1 mg/kg, brincidofovir 1 mg/kg, Female, Day 1, 1 h, read-out: brincidofovir Mean Concentration (MC)) of 137 ng/mL. For the same compound, the concentration at 2 h (1 mg/kg, brincidofovir 1 mg/kg, Female, Day 1, 2 h, read-out: brincidofovir Imputed Mean Concentration (IMC)) was 191 ng/mL, the concentration at 2 h (1 mg/kg, brincidofovir 1 mg/kg, Female, Day 1, 2 h, read-out: brincidofovir Mean Concentration (MC)) was 191 ng/mL and the concentration at 8 h (1 mg/kg, brincidofovir 1 mg/kg, Female, Day 1, 8 h, read-out: brincidofovir Imputed Mean Concentration (IMC)) was 1.25 ng/mL. For the same compound, the concentration at 8 h (1 mg/kg, brincidofovir 1 mg/kg, Female, Day 1, 8 h, read-out: brincidofovir Mean Concentration (MC)) was 1.25 ng/mL, the concentration at 24 h (1 mg/kg, brincidofovir 1 mg/kg, Female, Day 1, 24 h, read-out: brincidofovir Mean Concentration (MC)) was 0 ng/mL and the concentration at 0 h (1 mg/kg, brincidofovir 1 mg/kg, Female, Day 7, 0 h, read-out: brincidofovir Imputed Mean Concentration (IMC)) was 0 ng/mL. It also gave a concentration at 0 h (1 mg/kg, brincidofovir 1 mg/kg, Female, Day 7, 0 h, read-out: brincidofovir Mean Concentration (MC)) of 0 ng/mL, a concentration at 2 h (1 mg/kg, brincidofovir 1 mg/kg, Female, Day 7, 2 h, read-out: brincidofovir Imputed Mean Concentration (IMC)) of 95.4 ng/mL and a concentration at 2 h (1 mg/kg, brincidofovir 1 mg/kg, Female, Day 7, 2 h, read-out: brincidofovir Mean Concentration (MC)) of 95.4 ng/mL. The concentration at 8 h (1 mg/kg, brincidofovir 1 mg/kg, Female, Day 7, 8 h, read-out: brincidofovir Imputed Mean Concentration (IMC)) was 2.19 ng/mL, the concentration at 8 h (1 mg/kg, brincidofovir 1 mg/kg, Female, Day 7, 8 h, read-out: brincidofovir Mean Concentration (MC)) was 2.19 ng/mL and the concentration at 1 h (1 mg/kg, brincidofovir 1 mg/kg 2-h IV infusion, female rats, Day 1, 1 h, BLQ imputed as zero, read-out: Imputed Concentration, Mean) was 137 ng/mL. The concentration at 1 h (1 mg/kg, brincidofovir 1 mg/kg 2-h IV infusion, female rats, Day 1, 1 h, BLQ imputed as zero, read-out: Imputed Concentration, individual animals) was 109 ng/mL, the concentration at 2 h (1 mg/kg, brincidofovir 1 mg/kg 2-h IV infusion, female rats, Day 1, 2 h, BLQ imputed as zero, read-out: Imputed Concentration, Mean) was 191 ng/mL and the concentration at 2 h (1 mg/kg, brincidofovir 1 mg/kg 2-h IV infusion, female rats, Day 1, 2 h, BLQ imputed as zero, read-out: Imputed Concentration, individual animals) was 253 ng/mL. The concentration at 8 h (1 mg/kg, brincidofovir 1 mg/kg 2-h IV infusion, female rats, Day 1, 8 h, BLQ imputed as zero, read-out: Imputed Concentration, Mean) was 1.25 ng/mL, the concentration at 24 h (1 mg/kg, brincidofovir 1 mg/kg 2-h IV infusion, female rats, Day 1, 24 h, BLQ imputed as zero, read-out: Imputed Concentration, Mean) was 0 ng/mL and the concentration at 24 h (1 mg/kg, brincidofovir 1 mg/kg 2-h IV infusion, female rats, Day 1, 24 h, BLQ imputed as zero, read-out: Imputed Concentration, individual animals) was 0 ng/mL. For the same compound, the concentration at 0 h (1 mg/kg, brincidofovir 1 mg/kg 2-h IV infusion, female rats, Day 7, 0 h, BLQ imputed as zero, read-out: Imputed Concentration, individual animals) was 0 ng/mL, the concentration at 2 h (15 mg/kg, 15 mg/kg, female rats, Day 1, 2 h, read-out: IC (Imputed Concentration), individual animals) was 2460 ng/mL and the concentration at 8 h (15 mg/kg, 15 mg/kg, female rats, Day 1, 8 h, read-out: C (Concentration), individual animals) was 5.05 ng/mL. It also gave a concentration at 8 h (15 mg/kg, 15 mg/kg, female rats, Day 1, 8 h, read-out: IC (Imputed Concentration), individual animals) of 5.05 ng/mL, a concentration at 24 h (15 mg/kg, 15 mg/kg, female rats, Day 1, 24 h, read-out: C (Concentration), individual animals) of 2.32 ng/mL and a concentration at 24 h (15 mg/kg, 15 mg/kg, female rats, Day 1, 24 h, read-out: IC (Imputed Concentration), individual animals) of 2.32 ng/mL. It also gave a concentration at 8 h (15 mg/kg, 15 mg/kg, female rats, Day 7, 8 h, read-out: C (Concentration), individual animals) of 5.32 ng/mL, a concentration at 8 h (15 mg/kg, 15 mg/kg, female rats, Day 7, 8 h, read-out: IC (Imputed Concentration), individual animals) of 5.32 ng/mL and a concentration at 24 h (15 mg/kg, 15 mg/kg, female rats, Day 7, 24 h, read-out: C (Concentration), individual animals) of 2.37 ng/mL. It also gave an AUC(0-t) [7] of 459 ng·h/mL, a Cmax [7] of 191 ng/mL and a Tmax [7] of 2 h. For the same compound, the AUC(0-t) [8] was 244 ng·h/mL, the Cmax [8] was 95.4 ng/mL and the Tmax [8] was 2 h.
